Columns and labels:
MCP-1 mRNA = assay: LPS-induced MCP-1 gene expression in THP-1 macrophages (qRT-PCR); assay type: cell-based, human; settings: 4 h LPS, LPS-treated cells = 100%; for decrease in MCP-1 mRNA: compound 50 µg/mL
Procedure: (§1) The human THP-1 monocyte cell line was obtained from ATCC (American Type Culture Collection). […] The THP-1 monocytes were stimulated to differentiate into macrophages with phorbol 12-myristate 13-acetate (PMA) (50 ng/mL) for 24 h. The medium was exchanged for PMA-free medium for 48 h before the cells were used for experiments.
(§2) The total RNA was isolated from THP-1 cells using TRIzol reagent, according to the manufacturer’s protocol. First-strand cDNA was synthesized from 2 µg of RNA using oligo(dT) primers with RevertAid H Minus kit (Thermo Fisher Scientific, USA). The qRT-PCR procedure was performed using ABsolute Blue QPCR SYBR Green Master Mix reagent (Thermo Fisher Scientific, USA) with a ViiA7 real-time PCR detection system (Applied Biosystems, USA). The primer pairs that were employed for HCA2/GPR109A were forward 5′-[…]-3′ and reverse 5′-[…]-3′; for FFA2/GPR43 were forward 5′-[…]-3′ and reverse 5′-[…]-3′; for FFA3/GPR41 were forward 5′-[…]-3′ and reverse 5′-[…]-3′; for IL-6 were forward 5′-[…]-3′ and reverse 5′-[…]-3′; for MCP-1 were forward 5′-[…]-3′ and reverse 5′-[…]-3′; for TNF-α were forward 5′-[…]-3′ and reverse 5′-[…]-3′; for RPS29 were forward 5′-[…]-3′ and reverse 5′- […]-3′. The mRNA levels were quantified and normalized to the levels of the reference gene RPS29 using the 2^−ΔΔCt method and presented as relative expression compared to the values for untreated cells.

[1] = cyclic voltammetry, electrooxidation potential; assay type: physicochemical; settings: vs. Ag/Ag+; acetonitrile, glassy carbon electrode
Procedure: Cyclic voltammetry experiments were carried out using a PARSTAT 2273 electrochemical system. A stationary glassy carbon disk electrode (d = 0.8 mm) served as the working electrode, while the counter electrode was a Pt wire. The oxidation potentials were measured relative to an Ag/Ag^+ reference electrode. Acetonitrile was dried over P2O5 and distilled; the distillate was stored over CaH2 and redistilled immediately prior to use. Recrystallized tetrabutylammonium tetrafluoroborate (TBATFB) was used as a supporting electrolyte at 0.1 M concentration.

HCA2/GPR109A = molecular target: T1, HCA2/GPR109A (Homo sapiens, UniProt Q8TDS4); assay: forskolin-stimulated cAMP accumulation assay, Flp-In-293 cells stably expressing HCA2/GPR109A; assay type: cell-based; settings: for Emax / EC50: mean ± SD; for Emax: read-out: HCA2/GPR109A Emax, maximal inhibition of forskolin-stimulated cAMP (converted); for EC50: inhibition of forskolin-stimulated cAMP, read-out: HCA2/GPR109A EC50
T1 construct: expressed in transfected cells; host or cells: Flp-In-293
T1 sequence (Q8TDS4 whole entry): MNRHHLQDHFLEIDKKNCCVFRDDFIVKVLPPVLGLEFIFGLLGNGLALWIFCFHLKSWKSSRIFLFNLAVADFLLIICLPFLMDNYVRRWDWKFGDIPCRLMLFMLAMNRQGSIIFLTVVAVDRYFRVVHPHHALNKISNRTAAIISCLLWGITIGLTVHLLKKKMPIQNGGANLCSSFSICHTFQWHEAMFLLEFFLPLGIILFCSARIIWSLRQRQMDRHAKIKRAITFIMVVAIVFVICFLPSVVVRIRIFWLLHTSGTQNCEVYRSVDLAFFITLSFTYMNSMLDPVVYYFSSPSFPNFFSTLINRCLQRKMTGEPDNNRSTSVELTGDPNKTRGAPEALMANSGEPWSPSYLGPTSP
Procedure: (§3) All of our synthesized compounds were evaluated in forskolin-stimulated cAMP accumulation assay using Flp-In-293 cells stably expressing human FFA2/GPR43, FFA3/GPR41 or HCA2/GPR109A receptors (Table 1, Table 2 and Table 3; Figure 2).
Flp-In-293 cells stably expressing human HCA2/GPR109A receptor (laboratory collection) were grown in DMEM medium supplemented with 10% FBS, penicillin, streptomycin, and hygromycin B (100 µg/mL). All cells were cultured at 37 °C in a humidified incubator containing 5% CO2.
(§4) For cAMP assay, the cells were distributed into a 384-well white microplate at a density of 12,000 cells per well and stimulated with the indicated compounds in the presence of 3 μM forskolin for 30 min. […] The cells and the compounds were diluted in 1X phosphate-buffered saline (PBS) supplemented with 0.5 mM of 3-isobutyl-1-methylxanthine. The intracellular cAMP levels were measured using a Lance cAMP kit according to the manufacturer’s instructions. The plates were read on a PerkinElmer Victor 3V multilabel plate reader. The cAMP was quantitated in each sample by comparison to a calibration curve of known cAMP quantities provided in the kit.

FFA3/GPR41 mRNA = assay: FFA3/GPR41 gene expression in LPS-stimulated THP-1 macrophages (qRT-PCR); assay type: cell-based, human; settings: compound 50 µM; 4 h LPS 1 µg/mL; p < 0.05
Procedure: as §1, §2

FFA3/GPR41 = molecular target: T2, FFA3/GPR41 (Homo sapiens, UniProt O14843); assay: forskolin-stimulated cAMP accumulation assay, Flp-In-293 cells stably expressing FFA3/GPR41; assay type: cell-based; settings: for Emax / inhibition at 50 µM: Flp-In-293; for Emax / EC50: mean ± SD; for Emax: read-out: FFA3/GPR41 Emax, maximal inhibition of forskolin-stimulated cAMP (converted); for EC50: inhibition of forskolin-stimulated cAMP, absence of propionate, read-out: FFA3/GPR41 EC50; for inhibition at 50 µM: 50 µM compound, NA = not active up to 50 µM
T2 construct: host or cells: Flp-In-293
T2 sequence (O14843 1-346): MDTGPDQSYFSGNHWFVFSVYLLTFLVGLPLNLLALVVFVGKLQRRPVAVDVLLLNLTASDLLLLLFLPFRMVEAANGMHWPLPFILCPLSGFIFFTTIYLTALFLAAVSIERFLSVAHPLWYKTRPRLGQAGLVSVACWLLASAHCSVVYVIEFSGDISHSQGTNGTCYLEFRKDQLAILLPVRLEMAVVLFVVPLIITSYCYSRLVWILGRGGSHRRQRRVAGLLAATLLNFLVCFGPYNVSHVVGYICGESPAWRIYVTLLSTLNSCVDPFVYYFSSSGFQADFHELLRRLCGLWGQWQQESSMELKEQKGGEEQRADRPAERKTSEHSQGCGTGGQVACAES
Procedure: as §3
(§5) Flp-In-293 cells (Invitrogen) were used for the generation of stable FFA3/GPR41 and FFA2/GRP43 cell lines using Flp-In System (Invitrogen). Flp-In-293 cells were cultured in Dulbecco’s modified Eagle medium (DMEM) supplemented with 10% fetal bovine serum (FBS), penicillin (100 U/mL), streptomycin (100 µg/mL), and zeocin (100 µg/mL). The cells were co-transfected with pOG44 (Invitrogen) and pcDNA5/FRT-FFA3 or pcDNA5/FRT-FFA2 using TurboFect (Thermo Fisher Scientific), and stable cell lines were generated according to the manufacturer’s protocol (Invitrogen). After transfection, the cells were cultured under selection pressure due to the presence of hygromycin B (100 µg/mL) in DMEM supplemented with 10% FBS, penicillin, and streptomycin.
as §4

TNF-α mRNA = assay: LPS-induced TNF-α gene expression in THP-1 macrophages (qRT-PCR); assay type: cell-based, human; settings: 4 h LPS, LPS-treated cells = 100%; for decrease in TNF-α mRNA: compound 50 µg/mL
Procedure: as §1, §2

FFA2/GPR43 = molecular target: T3, FFA2/GPR43 (Homo sapiens, UniProt O15552); assay: forskolin-stimulated cAMP accumulation assay, Flp-In-293 cells stably expressing FFA2/GPR43; assay type: cell-based; settings: for inhibition at 50 µM: 50 µM compound, NA = not active up to 50 µM
T3 construct: host or cells: Flp-In-293
T3 sequence (O15552 1-330): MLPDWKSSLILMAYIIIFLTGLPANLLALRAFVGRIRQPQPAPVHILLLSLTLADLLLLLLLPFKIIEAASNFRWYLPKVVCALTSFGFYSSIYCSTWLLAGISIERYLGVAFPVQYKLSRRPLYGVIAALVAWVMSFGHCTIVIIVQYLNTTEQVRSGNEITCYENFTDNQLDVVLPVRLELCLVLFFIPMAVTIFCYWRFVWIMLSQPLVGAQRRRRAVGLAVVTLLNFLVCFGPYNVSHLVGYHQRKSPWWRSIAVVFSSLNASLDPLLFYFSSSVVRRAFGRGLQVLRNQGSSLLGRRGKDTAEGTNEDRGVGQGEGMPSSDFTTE
Procedure: as §3, §5, §4

HCA2/GPR109A mRNA = assay: HCA2/GPR109A gene expression in LPS-stimulated THP-1 macrophages (qRT-PCR); assay type: cell-based, human; settings: compound 50 µM; 4 h LPS 1 µg/mL; p < 0.05
Procedure: as §1, §2

IL-6 mRNA = assay: LPS-induced IL-6 gene expression in THP-1 macrophages (qRT-PCR); assay type: cell-based, human; settings: 4 h LPS, LPS-treated cells = 100%; for decrease in IL-6 mRNA: compound 50 µg/mL
Procedure: as §1, §2

FFA2/GPR43 mRNA = assay: FFA2/GPR43 gene expression in LPS-stimulated THP-1 macrophages (qRT-PCR); assay type: cell-based, human; settings: propionate 1 mM; 4 h LPS 1 µg/mL; not statistically significant (p > 0.05)
Procedure: as §1, §2

SMILES	decrease in MCP-1 mRNA (MCP-1 mRNA) [%]	El.ox. pot. (single value) [1] [V]	Emax (HCA2/GPR109A; HCA2) [%]	EC50 (HCA2/GPR109A) [µM]	LPS-stimulated FFA3/GPR41 mRNA level (FFA3/GPR41 mRNA)	Emax (FFA3/GPR41) [%]	EC50 (FFA3/GPR41) [µM]	decrease in TNF-α mRNA (TNF-α mRNA) [%]	Emax (FFA2/GPR43; Flp-In-293, mean ± SD, read-out: FFA2/GPR43 Emax, maximal inhibition of forskolin-stimulated cAMP (converted)) [%]	EC50 (FFA2/GPR43; inhibition of forskolin-stimulated cAMP, mean ± SD) [µM]	LPS-stimulated HCA2/GPR109A mRNA level (HCA2/GPR109A mRNA)	decrease in IL-6 mRNA (IL-6 mRNA) [%]	inhibition at 50 µM (FFA3/GPR41) [%]	inhibition at 50 µM (FFA2/GPR43; Flp-In-293) [%]	inhibition at 50 µM (HCA2/GPR109A; HCA2, 50 µM compound, NA = not active up to 50 µM) [%]	LPS-upregulated FFA2/GPR43 gene expression (FFA2/GPR43 mRNA)	downregulation of LPS-induced MCP-1 mRNA (MCP-1 mRNA; propionate 1 mM) [%]	downregulation of LPS-induced TNF-α mRNA (TNF-α mRNA; propionate 1 mM) [%]	downregulation of LPS-induced IL-6 mRNA (IL-6 mRNA; propionate 1 mM) [%]
O=c1[nH]c(=O)c2c(CCCCCl)cc(=O)oc2[nH]1 [2-7, 5-(4-Chlorobutyl)-1H-pyrano[2,3-d]pyrimidine-2,4,7-trione]	50 ± 5	1.94	98	0.054 ± 0.006	significantly increased	89	0.22 ± 0.03	48 ± 11	88	0.38 ± 0.06	significantly reduced	74 ± 3							
O=C(CSc1nc(=O)c2c(CCCCCl)cc(=O)oc2[nH]1)OCc1ccccc1 [3-3]	49 ± 5		85	17 ± 3	significantly increased			53 ± 9			significantly reduced	65 ± 2	72 ± 2	66 ± 6					
CC(Sc1nc(=O)c2c(CCCCCl)cc(=O)oc2[nH]1)C(=O)c1ccc(OCc2ccccc2)cc1 (stereo not drawn) [3-4, 2-[2-(4-Benzyloxy-phenyl)-1-methyl-2-oxo-ethylsulfanyl]-5-(4-chlorobutyl)-1H-pyrano[2,3-d]pyrimidine-4,7-dione]	41 ± 1	1.98				95	0.38 ± 0.1	58 ± 10			significantly reduced	61 ± 1		49 ± 2	33 ± 16				
NC(=O)CSc1nc(=O)c2c(CCCCCl)cc(=O)oc2[nH]1 [3-5, 2-[5-(4-Chlorobutyl)-4,7-dioxo-1,7-dihydro-4H-pyrano[2,3-d]pyrimidin-2-ylsulfanyl]-acetamide]		1.93	87	62 ± 10									20 ± 4	42 ± 2					
CCC(=O)O [propionate, reference compound]																slightly increased	33 ± 2	42 ± 4	66 ± 5

— PMC8537386, “The Specificity and Broad Multitarget Properties of Ligands for the Free Fatty Acid Receptors FFA3/GPR41 and FFA2/GPR43 and the Related Hydroxycarboxylic Acid Receptor HCA2/GPR109A” (Pharmaceuticals, 2021)
